Among the test systems are OVCAR-4 ovarian; SF-539 CNS; MALME-3M melanoma; SR leukemia; RPMI-8226 leukemia; SF-295 CNS; CAKI-1 renal; BT-549 breast.
Common to all, as to experiment: inhibition of tumour cell growth, NCI panel, 48 h

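Cells were grown in 96-well plates and exposed to each compound for 48 hours at five concentrations; endpoints were interpolated linearly between bracketing concentrations, or set to the highest concentration if not reached. The concentration for 50% growth inhibition is given as GI50. TGI: total growth inhibition.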

As for `O=C(Nc1ccc(-n2ccc3c(NC(=O)c4ccccc4)ncnc32)cc1)Nc1ccc(Cl)c(Cl)c1`, the GI50 is 0.887 µM with OVCAR-4 ovarian; 1.32 µM in the assay on SF-539 CNS; 3.39 µM in the assay with MALME-3M melanoma; 1.17 µM in the assay with SR leukemia; 1.21 µM with RPMI-8226 leukemia; 4.5 µM in the assay with SF-295 CNS. In addition, in the assay with CAKI-1 renal, the GI50 is 8.79 µM. In addition, the TGI in the assay with OVCAR-4 ovarian stood at 1.8 µM; in the assay on SF-539 CNS, 10.3 µM; in the assay with MALME-3M melanoma, 12 µM; in the assay on SR leukemia it was 2.7 µM; with RPMI-8226 leukemia, 3.2 µM; in the assay with SF-295 CNS it was 14.2 µM. In the assay on CAKI-1 renal, this compound showed a TGI of 21.2 µM.
Turning to `O=c1[nH]nc(Cc2c[nH]c3ccccc23)o1`, the TGI in the assay with OVCAR-4 ovarian, in the assay on SF-539 CNS, in the assay with MALME-3M melanoma, in the assay on BT-549 breast, in the assay on RPMI-8226 leukemia and with SF-295 CNS was over 100 µM each time. In the assay on CAKI-1 renal, this compound came in with a TGI of over 100 µM.
With `NC(=O)NCCCC(NC(=O)OCCCCCCn1ccc(=O)[nH]c1=O)C(=O)O` (configuration not stated), the TGI in the assay on OVCAR-4 ovarian, in the assay on SF-539 CNS, with BT-549 breast, with SR leukemia, in the assay with RPMI-8226 leukemia and in the assay on SF-295 CNS was over 100 µM in each case. The compound further came in with a TGI in the assay with CAKI-1 renal of over 100 µM.
In the case of `COc1ccc(C2SCC(=O)N2NC(=O)c2ccc(NC(C)=O)cc2)c(OC)c1` (configuration not stated), the TGI in the assay on OVCAR-4 ovarian, in the assay with SF-539 CNS, in the assay on BT-549 breast, in the assay on RPMI-8226 leukemia and in the assay with SF-295 CNS was over 100 µM in each case.
As for `CC(=O)NC1(c2cc3ccccc3s2)CCCCCC1`, the TGI in the assay on OVCAR-4 ovarian is over 100 µM; in the assay on SF-539 CNS, over 100 µM; in the assay with BT-549 breast, over 100 µM; in the assay with SR leukemia it was 93.1 µM; in the assay on SF-295 CNS it was over 100 µM; in the assay with CAKI-1 renal it was over 100 µM.
For the compound `CCOC(=O)c1cc2/c(=C\c3ccc(N(C)C)cc3)c3ccccc3n2[n+]1C`, the TGI was 13.7 µM in the assay with OVCAR-4 ovarian; 4.02 µM with SF-539 CNS; 7.11 µM in the assay on BT-549 breast; 16.1 µM in the assay with SF-295 CNS; 15.3 µM in the assay on CAKI-1 renal.
With `N#Cc1c(-c2ccc(Cl)cc2)[nH]c(=O)n(C2OC(CO)C(O)C(O)C2O)c1=O` (configuration not stated), the TGI in the assay with OVCAR-4 ovarian, in the assay on SF-539 CNS, in the assay with BT-549 breast, in the assay with RPMI-8226 leukemia, in the assay with SF-295 CNS and in the assay with CAKI-1 renal was over 100 µM in each case.
Take `N#Cc1c(N2CCC(O)C2)c2ccccc2n2c1nc1ccccc12` (configuration not stated): the TGI in the assay on OVCAR-4 ovarian, with SF-539 CNS, in the assay on MALME-3M melanoma, in the assay on BT-549 breast, in the assay with RPMI-8226 leukemia and with SF-295 CNS was over 100 µM each time. The same compound came in with a TGI in the assay on CAKI-1 renal of over 100 µM.
In the case of `Nc1nc2ncc(CNc3ccc(C(=O)NC(CCC(=O)O)C(=O)O)cc3)nc2c(=O)[nH]1` (configuration not stated), the TGI in the assay with OVCAR-4 ovarian, in the assay with SF-539 CNS, with MALME-3M melanoma, in the assay on BT-549 breast, in the assay with SR leukemia and in the assay with RPMI-8226 leukemia was over 100 µM throughout. The TGI with SF-295 CNS was over 100 µM.
For `Cc1ccc(/C(O)=C/C(=O)C(=O)NC23CC4CC(CC(C4)C2)C3)cc1`, the TGI in the assay with OVCAR-4 ovarian, in the assay on MALME-3M melanoma, with SR leukemia, in the assay on RPMI-8226 leukemia, in the assay with SF-295 CNS and with CAKI-1 renal was over 10 µM each time.
Regarding `COc1ccc(CCCNC(=O)c2cc(OC)c(OC)cc2CCO)cc1OC`, the TGI in the assay on OVCAR-4 ovarian, in the assay with SF-539 CNS, with BT-549 breast, in the assay on SR leukemia, with RPMI-8226 leukemia and in the assay on SF-295 CNS was over 100 µM throughout. The compound also yielded a TGI with CAKI-1 renal of over 100 µM.
Regarding `O=C(O)CCSCc1ccccc1`, the TGI in the assay with OVCAR-4 ovarian, in the assay with SF-539 CNS, in the assay on MALME-3M melanoma, in the assay with BT-549 breast, with RPMI-8226 leukemia and in the assay with SF-295 CNS was over 100 µM throughout. This compound also registered a TGI in the assay with CAKI-1 renal of over 100 µM.
Regarding `CC(=O)OCC1OC(n2c(-c3ccccc3)c(C(C)=O)c(-c3cccc4ccccc34)c(C#N)c2=S)C(OC(C)=O)C(OC(C)=O)C1OC(C)=O` (configuration not stated), the TGI with OVCAR-4 ovarian, in the assay on SF-539 CNS, in the assay on MALME-3M melanoma, in the assay with SR leukemia and in the assay on SF-295 CNS was over 100 µM in each case.
As to `N#CC(Cc1ccccc1)N(CCC1=CCCCC1)Cc1ccccc1` (configuration not stated), the TGI in the assay on OVCAR-4 ovarian is over 100 µM; in the assay on MALME-3M melanoma, over 100 µM; with BT-549 breast, over 100 µM; with RPMI-8226 leukemia, 63.5 µM; in the assay with SF-295 CNS it was over 100 µM; with CAKI-1 renal, over 100 µM.
Consider `O=C(Nc1ccc2[nH]c(C(=O)N3CC(CCl)c4c3cc([N+](=O)[O-])c3ccccc43)cc2c1)Nc1ccc2[nH]c(C(=O)N3CC(CCl)c4c3cc([N+](=O)[O-])c3ccccc43)cc2c1` (configuration not stated), for which the TGI with OVCAR-4 ovarian, with SF-539 CNS, in the assay on MALME-3M melanoma, with BT-549 breast, in the assay with RPMI-8226 leukemia and in the assay with SF-295 CNS was over 100 µM in each case. Further, the TGI in the assay with CAKI-1 renal is over 100 µM.
`O=c1ccn(COC(COCc2ccccc2)COCc2ccccc2)c(=O)[nH]1`: the TGI in the assay on OVCAR-4 ovarian, with MALME-3M melanoma, in the assay with BT-549 breast, in the assay with SR leukemia, in the assay with RPMI-8226 leukemia and in the assay with SF-295 CNS was over 100 µM throughout. The compound further yielded a TGI with CAKI-1 renal of over 100 µM.
For the compound `CN(C)C(c1ccccc1)C1COC2Cc3ccccc3C1O2` (configuration not stated), the TGI with OVCAR-4 ovarian, with SF-539 CNS, in the assay on MALME-3M melanoma, in the assay with SR leukemia, in the assay on RPMI-8226 leukemia and in the assay on SF-295 CNS was over 100 µM in each case. Besides, the TGI in the assay with CAKI-1 renal is over 100 µM.
For the compound `COC1CC(COCc2ccccc2)CC(OC)O1` (configuration not stated), the TGI with SF-539 CNS, with SR leukemia, in the assay on RPMI-8226 leukemia, in the assay on SF-295 CNS and in the assay on CAKI-1 renal was over 100 µM each time.
On to `O=C(CN1CCOCC1)c1ccc2c(c1)oc(=O)n2CCN1CCOCC1`, for which the TGI in the assay with SF-539 CNS, in the assay on MALME-3M melanoma, in the assay on SR leukemia, in the assay on RPMI-8226 leukemia, in the assay on SF-295 CNS and in the assay with CAKI-1 renal was over 100 µM in each case.
